From PubChem BioAssay AID330 (DTP/NCI, 2004)
Inconclusive results and toxic doses are left out. Rule for the calls: active = survival T/C of 150% or more; inactive = T/C below 125% in these data.

Test system: P388 leukemia ip, CD2F1 mice, survival T/C
Experiment: NCI In Vivo Anticancer Drug Screen. Data for tumor model P388 Leukemia (intraperitoneal) in CD2F1 (CDF1) mice
Conditions: endpoint: median survival time, higher = longer survival
Procedure, shortened: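 Mice carrying the transplanted tumor received test compound or vehicle. Survival was recorded in each group, and the value is the treated-group measurement divided by that of the vehicle-treated control group.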

[1] = dose: 50.0 mg/kg/injection, schedule: Q01DX005 (ip), vehicle: saline with Tween-80
[2] = dose: 100.0 mg/kg/injection, schedule: Q01DX005 (ip), vehicle: saline with Tween-80
[3] = dose: 200.0 mg/kg/injection, schedule: Q01DX005 (ip), vehicle: saline with Tween-80
[4] = dose: 25.0 mg/kg/injection, schedule: Q01DX009 (ip), vehicle: saline with Tween-80
[5] = dose: 50.0 mg/kg/injection, schedule: Q01DX009 (ip), vehicle: saline with Tween-80
[6] = dose: 100.0 mg/kg/injection, schedule: Q01DX009 (ip), vehicle: saline with Tween-80
[7] = dose: 50.0 mg/kg/injection, schedule: Q01DX009 (ip), vehicle: saline
[8] = dose: 100.0 mg/kg/injection, schedule: Q01DX009 (ip), vehicle: saline
[9] = dose: 200.0 mg/kg/injection, schedule: Q01DX009 (ip), vehicle: saline

Measured: T/C

O=C1CCCC2=C1C1(OC3C=CC=CN23)C(=O)c2ccccc2C1=O (configuration not stated)
inactive: [1] 103 % of control | [2] 97 % of control | [3] 92 % of control

CC(N=Cc1ccccc1O)c1ccccc1.[CH-]=C([CH2-])C(C)(C)C.[Pd+2] (configuration not stated)
inactive: dose: 6.25 mg/kg/injection, schedule: Q04DX003 (ip), vehicle: Klucel (hydroxypropylcellulose) (HPC) 108 % of control | dose: 12.5 mg/kg/injection, schedule: Q04DX003 (ip), vehicle: Klucel (hydroxypropylcellulose) (HPC) 93 % of control | dose: 25.0 mg/kg/injection, schedule: Q04DX003 (ip), vehicle: Klucel (hydroxypropylcellulose) (HPC) 92 % of control

CCC1(O)CC(OC2CC(O)C(O)C(C)O2)c2c(O)c3c(c(O)c2C1C(=O)OC)C(=O)c1cccc(O)c1C3=O (configuration not stated)
inactive: dose: 1.56 mg/kg/injection, schedule: Q04DX003 (ip), vehicle: water 104 % of control | dose: 3.13 mg/kg/injection, schedule: Q04DX003 (ip), vehicle: water 103 % of control | dose: 6.25 mg/kg/injection, schedule: Q04DX003 (ip), vehicle: water 103 % of control | dose: 12.5 mg/kg/injection, schedule: Q04DX003 (ip), vehicle: water 109 % of control | dose: 25.0 mg/kg/injection, schedule: Q04DX003 (ip), vehicle: water 109 % of control | dose: 50.0 mg/kg/injection, schedule: Q04DX003 (ip), vehicle: water 104 % of control | dose: 100.0 mg/kg/injection, schedule: Q04DX003 (ip), vehicle: water 119 % of control | dose: 200.0 mg/kg/injection, schedule: Q04DX003 (ip), vehicle: water 109 % of control

O=C(Nc1ccc(NC(=O)C(Cl)(Cl)Cl)cc1)C(Cl)(Cl)Cl
inactive: [4] 105 % of control | [5] 91 % of control | [6] 92 % of control | dose: 200.0 mg/kg/injection, schedule: Q01DX009 (ip), vehicle: saline with Tween-80 99 % of control

ClC1=C(Cl)C(Cl)=C(Cl)C1=C/C=C/c1ccccc1
inactive: [4] 99 % of control | [5] 100 % of control | [6] 91 % of control

CCN(CC)Cc1cc(N=Nc2ccc(N(C)C)cc2)ccc1O
inactive: dose: 100.0 mg/kg/injection, schedule: Q01DX001 (ip), vehicle: saline with Tween-80 88 % of control | dose: 200.0 mg/kg/injection, schedule: Q01DX001 (ip), vehicle: saline with Tween-80 88 % of control

COC(=O)C1=C(C(=O)OC)[C@@H]2CCC[C@H]1[C@H]1[C@@H]2N=NN1c1ccccc1
inactive: [1] 100 % of control | [2] 98 % of control | [3] 100 % of control

COC(=O)C1NC(C(O)C(O)C(O)C(O)CO)SC1(C)C (configuration not stated)
inactive: [7] 94 % of control | [8] 102 % of control | [9] 100 % of control

CCN(CC)CCC#N
inactive: [7] 94 % of control | [8] 87 % of control | [9] 88 % of control

COc1ccc(OCC2=NCCc3ccccc32)cc1
inactive: dose: 50.0 mg/kg/injection, schedule: Q01DX005 (ip), vehicle: Klucel (hydroxypropylcellulose) (HPC) 99 % of control | dose: 100.0 mg/kg/injection, schedule: Q01DX005 (ip), vehicle: Klucel (hydroxypropylcellulose) (HPC) 107 % of control | dose: 200.0 mg/kg/injection, schedule: Q01DX005 (ip), vehicle: Klucel (hydroxypropylcellulose) (HPC) 109 % of control

CC(=O)OC1CSC(OC(C)=O)C(OC(C)=O)C1[N+](=O)[O-] (configuration not stated)
inactive: dose: 100.0 mg/kg/injection, schedule: Q04DX002 (ip), vehicle: saline 99 % of control | dose: 200.0 mg/kg/injection, schedule: Q04DX002 (ip), vehicle: saline 115 % of control

O=[N+]([O-])c1cc(Br)c2c(c1)CCN2
inactive: dose: 25.0 mg/kg/injection, schedule: Q01DX009 (ip), vehicle: distilled water + Tween-80 98 % of control | dose: 50.0 mg/kg/injection, schedule: Q01DX009 (ip), vehicle: distilled water + Tween-80 100 % of control | dose: 100.0 mg/kg/injection, schedule: Q01DX009 (ip), vehicle: distilled water + Tween-80 97 % of control | dose: 200.0 mg/kg/injection, schedule: Q01DX009 (ip), vehicle: distilled water + Tween-80 103 % of control | dose: 400.0 mg/kg/injection, schedule: Q01DX009 (ip), vehicle: distilled water + Tween-80 116 % of control
